What is called IC50 is the concentration at which inhibition is half-maximal. A low value points to higher potency.

The structures appear in SMILES notation. Converted amounts (≈) assume the structure as drawn.

We go through four compounds from patent publication US20110178064A1, “SPIRO CONDENSED […] DERIVATIVES FOR USE AS ANTIBACTERIAL” (A[…]&D, priority 2007, published 2011).

For one test, the system named is Hin446. Put plainly: Bacterial susceptibility testing (MIC) in liquid media, 96 well format. In kind it is cell-based. The settings on record: Haemophilus influenzae. The source says:
(§1) Compounds may be tested for antimicrobial activity by susceptibility testing in liquid media in a 96 well format. Compounds may be dissolved in dimethylsulfoxide and tested in 10 doubling dilutions in the susceptibility assays. The organisms used in the assay may be grown overnight on suitable agar media and then suspended in a liquid medium appropriate for the growth of the organism. The suspension may be a 0.5 McFarland and a further 1 in 10 dilution may be advantageously made into the same liquid medium to prepare the final organism suspension in 100 μL. Plates may be incubated under appropriate conditions at 37° C. for 24 hours prior to reading. […] Compounds may be evaluated against organisms such as Gram-positive species, including Staphylococcus aureus, Streptococcus pneumoniae, Streptococcus pyogenes, and Enterococcus faecium; and Gram-negative species including Haemophilus influenzae, Escherichia coli and Moraxella catarrhalis.

The next test relates to Hin158. Described as above. The test is classed as cell-based. The settings on record: Haemophilus influenzae.
Description: as §1

The subject of another test is Hin737. The test is described as above. In kind it is cell-based. The settings on record: Haemophilus influenzae.
Description: as §1

The subject of another test is Eco524. The test is described as above. The test is classed as cell-based. The following applies: Escherichia coli.
Description: as §1

For test [1], the target named is Escherichia coli DNA gyrase A/B tetramer (Escherichia coli, UniProt P0AES4+P0AES6). Put plainly: DNA gyrase supercoiling activity fluorescence polarisation assay. The test is classed as biochemical. The gist of the method:
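Gyrase supercoiling reactions quenched with 40 nM 5′-BODIPY-FL oligodeoxynucleotide triplex probe in pH 3.5 NaCl/sodium acetate buffer; fluorescence anisotropy read after 60 min (485/535 nm).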
Background: In fluorescence polarisation assays a small probe gives low polarisation when free and higher when bound to something large.

For another test, the system named is Sau517. The test can be described thus: Bacterial susceptibility testing (MIC) in liquid media, 96 well format. In kind it is cell-based. The following applies: Staphylococcus aureus.
Description: as §1

Another test deals with Mca445. Described as above. The test is classed as cell-based. The settings on record: Moraxella catarrhalis.
Description: as §1

Sequence of Escherichia coli DNA gyrase A/B tetramer (P0AES4 whole entry, one chain of several): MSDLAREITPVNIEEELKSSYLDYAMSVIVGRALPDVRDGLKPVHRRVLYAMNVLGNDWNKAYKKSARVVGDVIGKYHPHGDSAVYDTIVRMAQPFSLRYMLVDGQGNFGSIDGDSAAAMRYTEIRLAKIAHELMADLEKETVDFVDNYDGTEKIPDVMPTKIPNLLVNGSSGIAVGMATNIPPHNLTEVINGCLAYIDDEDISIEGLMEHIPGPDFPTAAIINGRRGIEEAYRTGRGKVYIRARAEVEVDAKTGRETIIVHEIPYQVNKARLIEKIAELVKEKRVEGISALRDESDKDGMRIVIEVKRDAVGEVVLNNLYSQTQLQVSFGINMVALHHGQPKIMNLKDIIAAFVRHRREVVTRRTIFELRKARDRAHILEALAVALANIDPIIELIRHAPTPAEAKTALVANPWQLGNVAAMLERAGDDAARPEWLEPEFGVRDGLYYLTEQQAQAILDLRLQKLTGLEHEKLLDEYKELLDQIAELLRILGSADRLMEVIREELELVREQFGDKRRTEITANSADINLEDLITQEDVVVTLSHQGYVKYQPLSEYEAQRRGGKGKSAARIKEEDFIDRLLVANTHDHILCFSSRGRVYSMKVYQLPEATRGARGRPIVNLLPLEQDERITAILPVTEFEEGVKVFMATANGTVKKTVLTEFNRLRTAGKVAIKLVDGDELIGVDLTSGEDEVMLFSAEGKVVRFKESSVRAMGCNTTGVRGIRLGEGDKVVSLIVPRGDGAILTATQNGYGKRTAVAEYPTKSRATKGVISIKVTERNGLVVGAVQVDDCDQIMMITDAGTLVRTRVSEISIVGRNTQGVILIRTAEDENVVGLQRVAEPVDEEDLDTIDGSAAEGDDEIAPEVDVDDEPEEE

For the compound `C[C@@H]1CN2c3ncccc3CC3(C(=O)NC(=O)NC3=O)[C@H]2[C@H](C)O1` (relative stereo) [Example 18, (6aS,7S,9R)-rel-7,9-Dimethyl-6a,7,9,10-tetrahydro-1′H,5H-spiro[[1,4]oxazino[4,3-a][1,8]naphthyridine-6,5′-pyrimidine]-2′,4′,6′(3′H)-trione], the MIC was 16 µg/mL (≈ 48.4 µM) in the test with Hin446, 8 µg/mL (≈ 24.2 µM) in the test with Hin158, 32 µg/mL (≈ 96.9 µM) in the test with Hin737 and 32 µg/mL (≈ 96.9 µM) against Eco524. Besides, in test [1], the IC50 was 51 µM.

For the compound `C[C@@H]1CN2c3ccc(Br)nc3CC3(C(=O)NC(=O)NC3=O)[C@H]2[C@H](C)O1` (relative stereo) [Example 19, (2R,4S,4aS)-rel-8-Bromo-2,4-dimethyl-2,4,4a,6-tetrahydro-1H,1′H-spiro[[1,4]oxazino[4,3-a][1,5]naphthyridine-5,5′-pyrimidine]-2′,4′,6′(3′H)-trione], the MIC with Hin446 was determined as 4 µg/mL (≈ 9.77 µM); in the test on Hin158 it was 1 µg/mL (≈ 2.44 µM); in the test with Hin737, 16 µg/mL (≈ 39.1 µM); in the test on Sau517 it was 32 µg/mL (≈ 78.2 µM); in the test with Mca445, 8 µg/mL (≈ 19.5 µM); in the test with Eco524 it was 2 µg/mL (≈ 4.89 µM). Half-maximal inhibition in test [1] (IC50) was put at 11 µM.

With `COc1ccncc1-c1ccc2c(n1)CC1(C(=O)NC(=O)NC1=O)[C@H]1[C@H](C)O[C@H](C)CN21` (relative stereo) [Example 71, (2R,4S,4aS)-rel-8-(4-Methoxypyridin-3-yl)-2,4-dimethyl-1,2,4,4a-tetrahydro-2′H,6H-spiro[1,4-oxazino[4,3-a][1,5]naphthyridine-5,5′-pyrimidine]-2′,4′,6′(1′H,3′H)-trione], the IC50 in test [1] was 16 µM.

In test [1], `C[C@@H]1CN2c3ccc(-c4ccnnc4)nc3CC3(C(=O)NC(=O)NC3=O)[C@H]2[C@H](C)O1` (relative stereo) [Example 95, (2R,4S,4aS)-rel-2,4-Dimethyl-8-(pyridazin-4-yl)-1,2,4,4a-tetrahydro-2′H,6H-spiro[1,4-oxazino[4,3-a][1,5]naphthyridine-5,5′-pyrimidine]-2′,4′,6′(1′H,3′H)-trione] came in with an IC50 of 2 µM.
